Results taken from US10874743B2, “IRAK degraders and uses thereof” (Kymera Therapeutics, Inc., priority 2017, dated 2020).

Target: T1, IRAK4 (Homo sapiens, UniProt Q9NWZ3)
T1 sequence (Q9NWZ3 1-460): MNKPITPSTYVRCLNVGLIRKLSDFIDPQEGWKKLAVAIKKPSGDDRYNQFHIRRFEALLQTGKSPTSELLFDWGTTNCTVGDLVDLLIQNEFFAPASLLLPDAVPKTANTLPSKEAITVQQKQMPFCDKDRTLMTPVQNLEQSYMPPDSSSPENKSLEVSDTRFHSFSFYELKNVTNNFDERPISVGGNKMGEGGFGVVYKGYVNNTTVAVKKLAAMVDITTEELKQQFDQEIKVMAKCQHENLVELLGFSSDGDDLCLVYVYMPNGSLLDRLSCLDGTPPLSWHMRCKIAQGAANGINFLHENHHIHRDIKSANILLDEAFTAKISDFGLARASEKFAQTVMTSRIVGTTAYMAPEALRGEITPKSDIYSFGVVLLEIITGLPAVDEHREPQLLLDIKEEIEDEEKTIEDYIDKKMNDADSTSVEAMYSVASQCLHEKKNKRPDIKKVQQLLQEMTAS
Experiment: OCI-LY-10 degradation assay (western blot, % IRAK4 degraded after 4 hours)
Type: cell-based
Parameters: endogenous in cells; host or cells: OCI-LY10
Conditions: OCI-LY10 cells; for OCI-LY10 % IRAK4 Degradation: IRAK4 degraded after 4 hours, western blot; for OCI-LY10 % IRAK4 Degradation (0.01 uM) / OCI-LY10 % IRAK4 Degradation (0.1 uM) / OCI-LY10 % IRAK4 Degradation (1 uM): 4 hours; for OCI-LY10 % IRAK4 Degradation (0.01 uM): 0.01 uM compound; for OCI-LY10 % IRAK4 Degradation (0.1 uM): 0.1 uM compound; for OCI-LY10 % IRAK4 Degradation (1 uM): 1 uM compound
In short: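 IRAK4 loss after 4 h at 37° C was scored A (>50%), B (>20-50%) or C (<20%) from infrared western blots of RIPA lysates, 20-25 μg protein per lane. Compound was applied at 0.003-10 μM final to OCI-LY10 cells cultured in RPMI-1640 with 20% FBS and 55 μM 2-ME.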

Row | Compound | OCI-LY10 % IRAK4 Degradation | OCI-LY10 % IRAK4 Degradation (0.01 uM) | OCI-LY10 % IRAK4 Degradation (0.1 uM) | OCI-LY10 % IRAK4 Degradation (1 uM)
1 | O=C1CCC(N2C(=O)c3ccc(CCCOCCOCCNCc4ccc(-n5cc(NC(=O)c6coc(-c7ccnc(NCC8CC8)c7)n6)c(C(F)(F)F)n5)cc4)cc3C2=O)C(=O)N1 (stereo not shown) [I-187, 2-[2-(Cyclopropylmethylamino)-4-pyridyl]-N-[1-[4-[[2-[2-[3-[2-(2,6-dioxo-3-piperidyl)-1,3-dioxo-isoindolin-5-yl]propoxy]ethoxy]ethylamino]methyl]phenyl]-3-(trifluoromethyl)pyrazol-4-yl]oxazole-4-carboxamide] | B (>20-50% degradation) | – | – | –
2 | Cc1ncsc1-c1ccc(CNC(=O)[C@@H]2C[C@@H](O)CN2C(=O)[C@@H](NCCCCCOCCOCCCCCNC(=O)c2ccc(-n3cc(NC(=O)c4coc(-c5ccnc(NCC(F)(F)F)c5)n4)c(C(N)=O)n3)cc2)C(C)(C)C)cc1 [I-188, N-(3-carbamoyl-1-(4-((5-(2-((5-(((S)-1-((2S,4R)-4-hydroxy-2-((4-(4-methylthiazol-5-yl)benzyl)carbamoyl)pyrrolidin-1-yl)-3,3-dimethyl-1-oxobutan-2-yl)amino)pentyl)oxy)ethoxy)pentyl)carbamoyl)phenyl)-1H-pyrazol-4-yl)-2-(2-((2,2,2-trifluoroethyl)amino)pyridin-4-yl)oxazole-4-carboxamide] | C (<20% degradation) | – | – | –
3 | N#Cc1ccc2ncc(-c3cccc(NC4CCN(CCCCCOCCOCCCCCNC(=O)COc5cccc6c5C(=O)N(C5CCC(=O)NC5=O)C6=O)C4)n3)n2c1 (stereo not shown) [I-204] | C (<20% degradation) | – | – | –
4 | Cc1ncsc1-c1ccc(CNC(=O)[C@@H]2C[C@@H](O)CN2C(=O)[C@@H](NC(=O)COCCCCCOCCCCCNC(=O)CN2CCC(Nc3cccc(-c4cnc5ccc(C#N)cn45)n3)C2)C(C)(C)C)cc1 (stereo partly shown) [I-205] | C (<20% degradation) | – | – | –
5 | Cc1ncsc1-c1ccc(CNC(=O)[C@@H]2C[C@@H](O)CN2C(=O)[C@@H](NC(=O)COCCOCCOCCOCCOCCNC(=O)C(F)CNC(=O)c2cnc(Nc3ccc4cnccc4n3)cc2NC2CC2)C(C)(C)C)cc1 (stereo partly shown) [I-207] | C (<20% degradation) | – | – | –
6 | N#Cc1ccc2ncc(-c3cccc(NC4CCN(CCOCCOCCOCCOCCOCCNc5cccc6c5C(=O)N(C5CCC(=O)NC5=O)C6=O)C4)n3)n2c1 (stereo not shown) [I-208] | C (<20% degradation) | – | – | –
7 | Cc1ncsc1-c1ccc(CNC(=O)[C@@H]2C[C@@H](O)CN2C(=O)[C@@H](NC(=O)COCCOCCOCCOCCOCCN2CCC(Nc3cccc(-c4cnc5ccc(C#N)cn45)n3)C2)C(C)(C)C)cc1 (stereo partly shown) [I-209] | C (<20% degradation) | – | – | –
8 | O=C1CCC(N2C(=O)c3cccc(NCCOCCNC(=O)c4ccc(-n5cc(NC(=O)c6coc(-c7ccnc(NCC8CC8)c7)n6)c(C(F)F)n5)cc4)c3C2=O)C(=O)N1 (stereo not shown) [I-211] | – | B (>20-50% degradation) | B (>20-50% degradation) | B (>20-50% degradation)
9 | O=C1CCC(N2C(=O)c3cccc(NCCOCCOCCOCCOCCNC(=O)c4ccc(-n5cc(NC(=O)c6coc(-c7ccnc(NCC8CC8)c7)n6)c(C(F)F)n5)cc4)c3C2=O)C(=O)N1 (stereo not shown) [I-212] | – | B (>20-50% degradation) | A (>50% degradation) | A (>50% degradation)
10 | NCc1nn(-c2ccc(C(=O)NCCOCCOCCNc3cccc4c3C(=O)N(C3CCC(=O)NC3=O)C4=O)cc2)cc1NC(=O)c1coc(-c2ccnc(NCC(F)(F)F)c2)n1 (stereo not shown) [I-215] | – | A (>50% degradation) | A (>50% degradation) | A (>50% degradation)
11 | O=C1CCC(N2C(=O)c3cccc(NCCOCCOCCNC(=O)c4ccc(-n5cc(NC(=O)c6coc(-c7ccnc(NCC8CC8)c7)n6)c(C(F)(F)F)n5)cc4)c3C2=O)C(=O)N1 (stereo not shown) [I-220] | – | B (>20-50% degradation) | B (>20-50% degradation) | B (>20-50% degradation)
12 | O=C1CCC(N2C(=O)c3cccc(CCCNCCCCCNC(=O)c4ccc(-n5cc(NC(=O)c6coc(-c7ccnc(NCC8CC8)c7)n6)c(C(F)(F)F)n5)cc4)c3C2=O)C(=O)N1 (stereo not shown) [I-221] | – | B (>20-50% degradation) | B (>20-50% degradation) | A (>50% degradation)
13 | O=C1CCC(N2C(=O)c3cccc(NCCNCCOCCNC(=O)c4ccc(-n5cc(NC(=O)c6coc(-c7ccnc(NCC8CC8)c7)n6)c(C(F)(F)F)n5)cc4)c3C2=O)C(=O)N1 (stereo not shown) [I-222] | – | A (>50% degradation) | A (>50% degradation) | A (>50% degradation)
14 | CN(CCOCCOCCCc1cccc2c1C(=O)N(C1CCC(=O)NC1=O)C2=O)C(=O)c1ccc(-n2cc(NC(=O)c3coc(-c4ccncc4)n3)c(C(N)=O)n2)cc1 (stereo not shown) [I-226] | – | B (>20-50% degradation) | A (>50% degradation) | A (>50% degradation)
15 | CN(CCOCCCc1cccc2c1C(=O)N(C1CCC(=O)NC1=O)C2=O)C(=O)c1ccc(-n2cc(NC(=O)c3coc(-c4ccnc(NCC5CC5)c4)n3)c(C(N)=O)n2)cc1 (stereo not shown) [I-229] | – | C (<20% degradation) | C (<20% degradation) | C (<20% degradation)
16 | CN(CCCCCCCCCc1cccc2c1C(=O)N(C1CCC(=O)NC1=O)C2=O)C(=O)c1ccc(-n2cc(NC(=O)c3coc(-c4ccnc(NCC5CC5)c4)n3)c(C(N)=O)n2)cc1 (stereo not shown) [I-230] | – | C (<20% degradation) | C (<20% degradation) | C (<20% degradation)
17 | NC(=O)c1nn(-c2ccc(C(=O)NCCOCCOCCCc3cccc4c3C(=O)N(C3CCC(=O)NC3=O)C4=O)cc2)cc1NC(=O)c1coc(-c2ccnc(NCC(F)(F)F)c2)n1 (stereo not shown) [I-233] | – | C (<20% degradation) | A (>50% degradation) | A (>50% degradation)
18 | NC(=O)c1nn(-c2ccc(C(=O)NCCOCCCc3cccc4c3C(=O)N(C3CCC(=O)NC3=O)C4=O)cc2)cc1NC(=O)c1coc(-c2ccnc(NCC(F)(F)F)c2)n1 (stereo not shown) [I-234] | – | C (<20% degradation) | B (>20-50% degradation) | B (>20-50% degradation)
19 | NC(=O)c1nn(-c2ccc(C(=O)NCCOCCOCCOCCOCC#Cc3cccc4c3C(=O)N(C3CCC(=O)NC3=O)C4=O)cc2)cc1NC(=O)c1coc(-c2ccnc(NCC(F)(F)F)c2)n1 (stereo not shown) [I-236] | – | C (<20% degradation) | B (>20-50% degradation) | A (>50% degradation)
20 | NC(=O)c1nn(-c2ccc(C(=O)NCCOCCOCCOCCCc3cccc4c3CN(C3CCC(=O)NC3=O)C4=O)cc2)cc1NC(=O)c1coc(-c2ccnc(NCC3CC3)c2)n1 (stereo not shown) [I-238] | – | C (<20% degradation) | B (>20-50% degradation) | A (>50% degradation)
21 | NC(=O)c1nn(CCOCCOCCOCCNc2cccc3c2C(=O)N(C2CCC(=O)NC2=O)C3=O)cc1NC(=O)c1coc(-c2ccnc(NCC3CC3)c2)n1 (stereo not shown) [I-239] | – | C (<20% degradation) | C (<20% degradation) | C (<20% degradation)
22 | O=C1CCC(N2C(=O)c3cccc(CCCOCCNC(=O)c4ccc(-n5cc(NC(=O)c6coc(-c7ccnc(NCC8CC8)c7)n6)c(C(F)F)n5)cc4)c3C2=O)C(=O)N1 (stereo not shown) [I-243] | – | C (<20% degradation) | C (<20% degradation) | C (<20% degradation)
23 | O=C1CCC(N2C(=O)c3cccc(CCCOCCOCCNC(=O)c4ccc(-n5cc(NC(=O)c6coc(-c7ccnc(NCC8CC8)c7)n6)c(C(F)F)n5)cc4)c3C2=O)C(=O)N1 (stereo not shown) [I-244] | – | C (<20% degradation) | B (>20-50% degradation) | B (>20-50% degradation)
24 | O=C1CCC(N2C(=O)c3cccc(NCCCCCNCCNC(=O)c4ccc(-n5cc(NC(=O)c6coc(-c7ccnc(NCC8CC8)c7)n6)c(C(F)F)n5)cc4)c3C2=O)C(=O)N1 (stereo not shown) [I-245] | – | C (<20% degradation) | B (>20-50% degradation) | A (>50% degradation)
